Assay results from US12312419B2, “Hemiasterlin derivative having cysteine residue” (priority 2019, dated 2025).

How the values were obtained:
porcine tubulin [1] = assay: Evaluation of activity for inhibiting microtubule polymerization using porcine tubulins (2); assay type: biochemical; conditions: compound 9.1 μM; 60 minutes after assay initiation; relative to wells without compound; lower = stronger inhibition
Experimental: (§1) Using a tubulin polymerization inhibition assay kit (catalog number: BK006P) purchased from Cytoskeleton Inc., the polymerization inhibitory activity of compounds of Examples with a concentration of 9.1 μM was evaluated in accordance with the protocol appended to the kit. To a 96 well microplate, 80 mM PIPES pH 6.9, 2 mM MgCl, 0.5 mM EGTA and 5% DMSO buffered solution of the compound to be evaluated was added in an amount of 10 μL for each well, and to these wells, 3 mg/mL porcine tubulin 80 mM PIPES pH 6.9, 2 mM MgCl, 0.5 mM EGTA, 1 mM GTP and 10.2% glycerol solution was added in an amount of 100 μL for each well. In order to examine a state in which tubulins polymerize over time, the absorbance at 340 nm was measured at 37° C., using a microplate reader. As the polymerization of tubulins progresses, the absorbance at 340 nm rises.
The tubulin polymerization inhibitory activity was evaluated based on the proportion of polymerized tubulins 60 minutes after the assay initiation. Specifically, the microtubule polymerization rate (%) was calculated by dividing the absorbance of tubulins that had polymerized at wells to which the compound had been added by the absorbance of tubulins that had polymerized at wells to which the compound had not been added, and multiplying the obtained value by 100.

Karpas-299 cells = assay: Cellular toxicity test (1), CellTiter-Glo cell viability; assay type: cell-based, human; conditions: Homo sapiens, 96 h; Karpas-299; cultured 4 days; cell viability
Experimental: Karpas-299 cells (European Collection of Authenticated Cell Cultures, hereinafter, ECACC), which are human lymphoma cell lines, were cultured in RPMI 1640 (GIBCO) containing 10% fetal bovine serum (MP Biomedicals) (hereinafter, referred to as the “culture medium”). Cells were prepared to be 2×10^5 cells/mL in the culture medium, and were added to a 96 well microplate for cell culturing in an amount of 50 μL for each well. Compounds of Examples or the Comparative Example compound 4 times diluted with the culture medium in 8 stages were added to the microplate in an amount of 50 μL for each well. These were cultured at 37° C. under 5% CO2 for 4 days. After culturing, the microplate was taken out from the incubator, and was left at rest at room temperature for 10 minutes. To each well, 50 μL of CellTiter-Glo Luminescent Cell Viability Assay (Promega) was added, and the resultant mixture was stirred. This mixture was incubated at a dark place for 20 minutes. Using a microplate luminometer, luminescence at each well was measured, thereby calculating the cell viability. From the value of the cell viability, the IC50 value was calculated.
The IC50 value was calculated by the following formula: IC50(nM)=antilog(LOG10(a/b)×(e−d)/(c−d)+LOG10b) • a: concentration a of test substance • b: concentration b of test substance • c: cell viability upon adding test substance with concentration a • d: cell viability upon adding test substance with concentration b • e: intermediate value between maximum and minimum among cell viabilities upon adding test substances with different concentrations (a and b are concentrations crossing the cell viability e, and a>b is indicated).
The cell viability at each concentration was calculated by the following formula: Cell Viability (%)=a′/b′×100 • a′: mean value of luminescence amount of wells to which test substance was added (n=6) • b′: mean value of luminescence amount of wells to which test substance was not added (n=6) • (n represents the number of evaluations performed per test substance concentration).

porcine tubulin [2] = assay: Evaluation of activity for inhibiting microtubule polymerization using porcine tubulins (1); assay type: biochemical; conditions: compound 9.1 μM; absorbance at 340 nm at 37° C. over time; FIG. 1
Experimental: as §1, with “In summary of the protocol, to” for “To”, “mg/ml” for “mg/mL”

| SMILES | Microtubule polymerization rate (%) (porcine tubulin [1]) | IC50 (Karpas-299 cells) | activity for inhibiting microtubule polymerization (porcine tubulin [2]) |
| --- | --- | --- | --- |
| CN[C@H](C(=O)N[C@H](C(=O)N(C)[C@H](/C=C(\C)C(=O)NCCCCNC(=O)CCCCCN1C(=O)CC(SC[C@H](N)C(=O)O)C1=O)C(C)C)C(C)(C)C)C(C)(C)c1cn(C)c2ccccc12 (stereo partly shown) [Comparative Example compound 2, reference compound] | 0% | 30 nM | – |
| CN[C@H](C(=O)N[C@H](C(=O)N(C)[C@H](/C=C(\C)C(=O)N[C@H](CCC(=O)NCCN1C(=O)CC(SC[C@H](N)C(=O)O)C1=O)C(=O)O)C(C)C)C(C)(C)C)C(C)(C)c1ccccc1 (stereo partly drawn) [Example MM1, (3S,6S,9S,10E,14R)-14-(3-{[2-(3-{[(2R)-2-Amino-2-carboxyethyl]sulfanyl}-2,5-dioxopyrrolidin-1-yl)ethyl]amino}-3-oxopropyl)-6-tert-butyl-8,11-dimethyl-4,7,12-trioxo-3-(2-phenylpropan-2-yl)-9-(propan-2-yl)-2,5,8,13-tetraazapentadec-10-en-15-oic Acid] | 9% | > 1000 nM | exhibited activities for inhibiting microtubule polymerization |
| CN[C@H](C(=O)N[C@H](C(=O)N(C)[C@H](/C=C(\C)C(=O)N[C@@H](CCC(=O)NCCN1C(=O)CC(SC[C@H](N)C(=O)O)C1=O)C(=O)O)C(C)C)C(C)(C)C)C(C)(C)c1ccccc1 (stereo partly shown) [Example MM11] | 0% | > 1000 nM | – |
| CN[C@H](C(=O)N[C@H](C(=O)N(C)[C@H](/C=C(\C)C(=O)N[C@H](CCC(=O)O)C(=O)NCCN1C(=O)CC(SC[C@H](N)C(=O)O)C1=O)C(C)C)C(C)(C)C)C(C)(C)c1ccccc1 (stereo partly shown) [Example MM15] | 0% | > 1000 nM | – |
| CN[C@H](C(=O)N[C@H](C(=O)N(C)[C@H](/C=C(\C)C(=O)N[C@H](CCC(=O)NCCCCN1C(=O)CC(SC[C@H](N)C(=O)O)C1=O)C(=O)O)C(C)C)C(C)(C)C)C(C)(C)c1ccccc1 (stereo partly shown) [Example MM17] | 0% | 850 nM | – |
| CN[C@H](C(=O)N[C@H](C(=O)N(C)[C@H](/C=C(\C)C(=O)N[C@@H](CCC(=O)NCCN1C(=O)CC(SC[C@H](N)C(=O)O)C1=O)C(=O)O)C(C)C)C(C)(C)C)C(C)(C)c1cn(C)c2ccccc12 (stereo partly shown) [Example MM18] | 0% | 541 nM | – |
| CN[C@H](C(=O)N[C@H](C(=O)N(C)[C@H](/C=C(\C)C(=O)N[C@H](CCC(=O)NCCCN1C(=O)CC(SC[C@H](N)C(=O)O)C1=O)C(=O)O)C(C)C)C(C)(C)C)C(C)(C)c1cn(C)c2ccccc12 (stereo partly shown) [Example MM23] | 0% | 942 nM | – |
| CN[C@H](C(=O)N[C@H](C(=O)N(C)[C@H](/C=C(\C)C(=O)NCCCC[C@@H](NC(=O)CCCN1C(=O)CC(SC[C@H](N)C(=O)O)C1=O)C(=O)O)C(C)C)C(C)(C)C)C(C)(C)c1ccccc1 (stereo partly shown) [Example MM28] | 0% | > 1000 nM | – |
| CN[C@H](C(=O)N[C@H](C(=O)N(C)[C@H](/C=C(\C)C(=O)N[C@H](CCC(=O)NCCN1C(=O)CC(SC[C@H](N)C(=O)O)C1=O)C(=O)O)C(C)C)C(C)(C)C)C(C)(C)c1cccc(C(F)(F)F)c1 (stereo partly shown) [Example MM30] | 12% | > 1000 nM | – |
| CN[C@H](C(=O)N[C@H](C(=O)N(C)[C@H](/C=C(\C)C(=O)N[C@H](CCC(=O)NCCN1C(=O)CC(SC[C@H](N)C(=O)O)C1=O)C(=O)O)C(C)C)C(C)(C)C)C(C)(C)C1CCCCC1 (stereo partly shown) [Example MM32] | 0% | > 1000 nM | – |
| C/C(=C\[C@H](C(C)C)N(C)C(=O)[C@@H](NC(=O)[C@@H](N)C(C)(C)c1ccccc1)C(C)(C)C)C(=O)N[C@H](CCC(=O)NCCN1C(=O)CC(SC[C@H](N)C(=O)O)C1=O)C(=O)O (stereo partly shown) [Example MM45] | 56% | > 1000 nM | – |
| C/C(=C\[C@H](C(C)C)N(C)C(=O)[C@@H](NC(=O)[C@@H](N(C)C)C(C)(C)c1ccccc1)C(C)(C)C)C(=O)N[C@H](CCC(=O)NCCN1C(=O)CC(SC[C@H](N)C(=O)O)C1=O)C(=O)O (stereo partly shown) [Example MM46] | 0% | > 1000 nM | – |
